The results in this text go back to US6846500B1, “Oral care chewing gums and method of use” (Cadbury Adams USA LLC, priority 1999, dated 2005).

The data set in a line: Calcium precipitation on mixing CPP-ACP and sodium bicarbonate; calcium retained on filter by Atomic Absorption. It counts as physicochemical, human. Here is the method: The in vivo test was done to first determine the release of CPP-ACP. A five person panel chewed a gum containing 1% CPP-ACP. […] CPP-ACP and sodium bicarbonate at these concentration were incubated in a 30 ml pooled human saliva with moderate shaking at 37° C. for 3 minutes to test precipitation upon consumption of the gum and at 1 hour to show how longer contact time would precipitate calcium carbonate. The resultant pH of the incubation solution was approximately 7. The solution was filtered, the retentate was rinsed with deionized H2O to remove any soluble calcium and the result was analyzed for calcium content by Atomic Absorption analysis. As a control an aqueous solution of 30 g of a 0.3% CPP-ACP solution was pass through the filter paper.

Regarding `O=C([O-])O.[Na+]` [NaHCO3, sodium bicarbonate], the Calcium retained is listed as 1.700 mg (30 g of saliva stored at 37° C. for 3 minutes); 1.7 mg (30 g of saliva stored at 37° C. for 3 minutes, listed as sodium bicarbonate); 1.600 mg (30 g of saliva stored at 37° C. for 1 hour).
